Like-named read-outs stand apart in the source and are kept apart here. Bridges are numbered along the chain shown (N, C = ends). [ ]: non-standard residue; d: D form. Trp(5-F) = N[C@@H](Cc1c[nH]c2ccc(F)cc12)C(=O)O; Trp(6-F) = N[C@@H](Cc1c[nH]c2cc(F)ccc12)C(=O)O
Columns and labels:
[1] = system: activation of the complement system by immunocomplexes (C3b/iC3b deposition); assay: Complement inhibition assay (ELISA): inhibition of C3 fixation to ovalbumin-anti-ovalbumin complexes in normal human plasma; type: biochemical; conditions: for complement inhibitory activity (in words): at the concentrations tested; for amount of conjugate required to achieve the same inhibition as Ac-V4(1-methyl-W)/H9A: relative to Ac-V4(1-methyl-W)/H9A (SEQ ID NO:23); for Relative activity: Table 2, relative to the activity of compstatin (SEQ ID NO: 1); for Activity over compstatin: Table 1B, exemplary analogs described herein
Experimental: Complement activation inhibition was assessed by measuring the inhibition of C3 fixation to ovalbumin-anti-ovalbumin complexes in normal human plasma. Microtiter wells were coated with 50 μl of ovalbumin (10 mg/ml) for 2 hr at 25° C. (overnight at 4° C.). The wells were saturated with 200 μl of 10 mg/ml BSA for 1 hr at 25° C. and then a rabbit anti-ovalbumin antibody was added to form an immunocomplex by which complement can be activated. Thirty microliters of peptides at various concentrations were added directly to each well followed by 30 μl of a 1:80 dilution of human plasma. After 30 min incubation, bound C3b/iC3b was detected using a goat anti-human C3 HRP-conjugated antibody. Color was developed by adding ABTS peroxidase substrate and optical density measured at 405 nm.
The % inhibition was plotted against the peptide concentration, and the resulting data set was fit to the logistic dose-response function using Origin 7.0 software. […] IC50 values were obtained from the fitted parameters that achieved the lowest chi-square value.

C3 = C3 (Homo sapiens, UniProt P01024); assay: Isothermal titration calorimetry of the interaction of C3 with compstatin analogs; type: binding
Experimental: Isothermal titration calorimetry experiments were performed using the Microcal VP-ITC calorimeter (Microcal Inc, Northampton, Mass.). Protein concentrations of 3.5-5 μM and peptide concentrations of 80-200 μM were used for these experiments. All titrations were performed in PBS (10 mM phosphate buffer with 150 mM NaCl, pH 7.4). In each experiment, the target protein, C3, was loaded into the cell, and peptide was loaded into the syringe. All experiments were performed at 25° C. and for each experiment, 2-μl peptide injections were made into the cell containing the protein. In each experiment, the raw isotherms were corrected for the heats of dilution by subtracting the isotherms representing peptide injections into the buffer. The resulting isotherms were fit to various models within the Origin 7.0 software, and the model that achieved the lowest chi square value was deemed to be appropriate for the respective dataset. Binding affinity and entropy values were plotted against log P values.

[2] = system: activation of the complement system by immunocomplexes (C3b/iC3b deposition); conditions: cited from earlier work; for Activity over compstatin: Table 1A, previously described analogs (WO2004/026328)
[3] = system: alternative pathway-mediated erythrocyte lysis; conditions: cited from earlier work
[4] = relative to Ac-V4W/H9A (SEQ ID NO:5)

Chain of C3 (P01024 23-1663): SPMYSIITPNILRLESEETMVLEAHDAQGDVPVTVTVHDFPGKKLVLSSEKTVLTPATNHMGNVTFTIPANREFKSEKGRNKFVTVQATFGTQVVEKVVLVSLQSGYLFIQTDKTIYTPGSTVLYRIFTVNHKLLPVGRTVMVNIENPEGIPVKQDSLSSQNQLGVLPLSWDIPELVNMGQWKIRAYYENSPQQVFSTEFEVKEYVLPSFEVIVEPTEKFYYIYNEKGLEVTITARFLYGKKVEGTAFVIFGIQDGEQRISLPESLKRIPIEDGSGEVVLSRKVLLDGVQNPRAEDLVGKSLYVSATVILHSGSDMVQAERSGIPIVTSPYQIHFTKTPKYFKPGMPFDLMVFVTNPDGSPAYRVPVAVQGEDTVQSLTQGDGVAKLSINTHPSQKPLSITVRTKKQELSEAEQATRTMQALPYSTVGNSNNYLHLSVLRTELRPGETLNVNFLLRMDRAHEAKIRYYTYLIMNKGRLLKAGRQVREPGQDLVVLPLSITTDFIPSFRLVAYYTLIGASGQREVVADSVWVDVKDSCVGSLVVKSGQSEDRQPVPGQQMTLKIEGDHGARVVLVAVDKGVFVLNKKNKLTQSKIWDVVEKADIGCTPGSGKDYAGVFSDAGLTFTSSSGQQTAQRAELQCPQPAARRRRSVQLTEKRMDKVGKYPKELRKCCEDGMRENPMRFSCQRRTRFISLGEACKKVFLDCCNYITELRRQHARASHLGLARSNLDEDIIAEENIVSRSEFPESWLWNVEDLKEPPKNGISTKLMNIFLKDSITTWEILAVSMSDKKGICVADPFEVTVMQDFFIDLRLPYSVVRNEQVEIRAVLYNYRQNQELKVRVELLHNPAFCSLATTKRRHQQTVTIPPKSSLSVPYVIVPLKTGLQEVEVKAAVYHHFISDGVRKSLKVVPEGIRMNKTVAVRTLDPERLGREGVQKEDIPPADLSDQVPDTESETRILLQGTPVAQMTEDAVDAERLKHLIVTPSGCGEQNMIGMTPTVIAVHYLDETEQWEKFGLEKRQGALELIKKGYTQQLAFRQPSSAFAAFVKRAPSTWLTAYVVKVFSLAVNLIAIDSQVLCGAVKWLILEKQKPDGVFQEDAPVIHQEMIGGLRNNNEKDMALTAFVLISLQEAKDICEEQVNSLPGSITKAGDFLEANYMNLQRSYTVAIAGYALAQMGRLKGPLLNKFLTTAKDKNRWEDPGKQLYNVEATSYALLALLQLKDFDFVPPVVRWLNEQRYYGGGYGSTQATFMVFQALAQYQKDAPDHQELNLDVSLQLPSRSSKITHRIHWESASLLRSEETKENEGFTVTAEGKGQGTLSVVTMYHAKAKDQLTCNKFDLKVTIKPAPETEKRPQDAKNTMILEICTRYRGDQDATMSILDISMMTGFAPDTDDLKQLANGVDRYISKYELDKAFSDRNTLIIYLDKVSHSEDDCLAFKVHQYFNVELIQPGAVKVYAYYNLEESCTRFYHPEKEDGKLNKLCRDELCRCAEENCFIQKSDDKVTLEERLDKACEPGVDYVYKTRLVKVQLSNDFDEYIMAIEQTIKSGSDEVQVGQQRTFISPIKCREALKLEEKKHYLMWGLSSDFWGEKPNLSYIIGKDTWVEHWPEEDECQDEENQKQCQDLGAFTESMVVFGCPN

**Q.** With `CC[C@H](C)[C@H](NC(C)=O)C(=O)N[C@H]1CSSC[C@@H](C(=O)N[C@H](C(N)=O)[C@@H](C)O)NC(=O)[C@H](CCCNC(=N)N)NC(=O)[C@H](Cc2c[nH]cn2)NC(=O)[C@H](C)NC(=O)CNC(=O)[C@H](Cc2c[nH]c3ccccc23)NC(=O)[C@H](CC(=O)O)NC(=O)[C@H](CCC(N)=O)NC(=O)[C@H](Cc2ccc3ccccc3c2)NC(=O)[C@H](C(C)C)NC1=O` [Ac-V4(2-Nal)/H9A] as the compound, how does the IC50 ([1]; Table 5) read?
**A.** 545 nM

**Q.** What about the ΔG (C3; Table 6, ITC, 25° C.) of the same compound?
**A.** -9.5 kcal/mol

**Q.** And the “−TΔS” value (C3; Table 6, ITC, 25° C.)?
**A.** 4.8 kcal/mol

**Q.** And the ΔΔG (C3; Table 6, relative to Wild-type)?
**A.** -0.1 kcal/mol

**Q.** What about the ΔΔH (C3; Table 6, relative to Wild-type) of the same compound?
**A.** 3.87 kcal/mol

**Q.** What about the “−TΔΔS” value (C3; Table 6, relative to Wild-type) of the same compound?
**A.** -3.99 kcal/mol

**Q.** And the Activity over compstatin [2]?
**A.** 99 × more

**Q.** Which IC50 [3] does the source give for `CC[C@H](C)[C@H](N)C(=O)N[C@H]1CSSC[C@@H](C(=O)N[C@H](C(N)=O)[C@@H](C)O)NC(=O)[C@H](CCCN=C(N)N)NC(=O)[C@H](Cc2cnc[nH]2)NC(=O)[C@H](Cc2cnc[nH]2)NC(=O)CNC(=O)[C@H](Cc2c[nH]c3ccccc23)NC(=O)[C@H](CC(=O)O)NC(=O)[C@H](CCC(N)=O)NC(=O)[C@H](C(C)C)NC(=O)[C@H](C(C)C)NC1=O` [Compstatin] here?
**A.** 12000 nM

**Q.** With “Ac-ICV(1-Nal)QDWGAHRCT-COOH [Ac V4(1-Nal)/H9A −OH]” as the compound, how does the Activity over compstatin [2] read?
**A.** 30 × more

**Q.** With “Ac-ICV(1MeW)QDWGAHRCTRLIEDICLPRWGCLWEDD-NH2 [Albumin-binding peptide-compstatin]” as the compound, how does the “complement inhibitory activity (in words)” value [1] read?
**A.** active in inhibiting complement activation

**Q.** What about the “amount of conjugate required to achieve the same inhibition as Ac-V4(1-methyl-W)/H9A” value [1] of the same compound?
**A.** seven-fold more conjugate was required

**Q.** Which Activity over compstatin [2] does the source give for “Ac-ICV(2-Igl)QDWGAHRCT-CONH2 [Ac-V4Igl/H9A]” here?
**A.** 39 × more

**Q.** For “Ac-ICV(2-Igl)QDWGAHRCT-COOH [Ac-V4Igl/H9A −OH]”, which Activity over compstatin [2] is on record?
**A.** 37 × more

**Q.** With “Ac-ICV(2-Nal)QDWGAHRCT-COOH [Ac V4(2-Nal)/H9A −OH]” as the compound, how does the Activity over compstatin [2] read?
**A.** 39 × more

**Q.** Which Activity over compstatin [2] does the source give for “Ac-ICV(Bpa)QDWGAHRCT-COOH [Ac-V4(Bpa)/H9A −OH]” here?
**A.** 49 × more

**Q.** What about the “fold greater activity than compstatin” value ([2]; analogs disclosed in WO2004/026328) of the same compound?
**A.** 49 fold

**Q.** With “Ac-ICVDhtQDWGAHRCT-COOH [Ac-V4Dht/H9A −OH]” as the compound, how does the Activity over compstatin [2] read?
**A.** 5 × more

**Q.** For Ac-ICVVQDWGHHRCT-CONH2 [Ac-compstatin], which Activity over compstatin [2] is on record?
**A.** 3 × more

**Q.** Which Activity over compstatin [2] does the source give for “Ac-ICVYQDWGAHRCT-CONH2 (Ac-ICVYQDWGAHRCT-NH2; disulfide 2-12 (inferred)) [Ac-V4Y/H9A]” here?
**A.** 19 × more

**Q.** For “Ac-V4(1-methyl-W)/H9A-K-PEG 5000: Ac-V4(1-methyl-W)/H9A with C-terminal lysine whose side chain is linked to PEG 5000 (ICVWQDWGAHRCTK; N-acetyl; 1-methyl-Trp at 4; C-terminal Lys-PEG5000)”, which “complement inhibitory activity (in words)” value [1] is on record?
**A.** active in inhibiting complement activation

**Q.** And the “amount of conjugate required to achieve the same inhibition as Ac-V4(1-methyl-W)/H9A” value [1]?
**A.** seven-fold more conjugate was required

**Q.** Which results are given for “GICVWQDWGAHRCTN [G(−1)/V4(5-OH-W)/W7(5-OH-W)/H9A/N14]”?
**A.** IC50 ([1]; Table 2, expressed peptides): 33000 nM; Relative activity [1]: 1.6; fold loss in activity / times less active compared to Ac-V4W/H9A [1, 4]: 27.5 fold

**Q.** For “GICVWQDWGAHRCTN [G(−1)/V4W/H9A/N14, bacterially expressed compstatin analog]”, which Activity over compstatin [1] is on record?
**A.** 45 × more

**Q.** What about the IC50 ([1]; Table 2, expressed peptides) of the same compound?
**A.** 1200 nM

**Q.** And the Relative activity [1]?
**A.** 45

**Q.** With “H-GICV(5f-l-W)QD(5f-l-W)GAHRCTN-COOH (H-GICV[Trp(5-F)]QD[Trp(5-F)]GAHRCTN-OH; disulfide 3-13 (inferred)) [G(−1)/V4(5fW)/W7(5fW)/H9A/N14, bacterially expressed compstatin analog]” as the compound, how does the Activity over compstatin [1] read?
**A.** 112 × more

**Q.** What about the IC50 ([1]; Table 2, expressed peptides) of the same compound?
**A.** 480 nM

**Q.** What about the Relative activity [1] of the same compound?
**A.** 112

**Q.** And the “fold higher activity than Ac-V4W/H9A” value [1, 4]?
**A.** 2.5 fold

**Q.** Which Activity over compstatin [1] does the source give for “H-GICV(6f-l-W)QD(6f-l-W)GAHRCTN-COOH (H-GICV[Trp(6-F)]QD[Trp(6-F)]GAHRCTN-OH; disulfide 3-13 (inferred)) [G(−1)/V4(6fW)/W7(6fW)/H9A/N14, bacterially expressed compstatin analog]” here?
**A.** 126 × more

**Q.** What about the IC50 ([1]; Table 2, expressed peptides) of the same compound?
**A.** 430 nM

**Q.** And the Relative activity [1]?
**A.** 126

**Q.** And the “fold higher activity than Ac-V4W/H9A” value [1, 4]?
**A.** 2.8 fold
